In US4923963A, “Bradykinin antagonist peptides” (Nova Technology Limited Partnership, priority 1987, dated 1990):
Like-named read-outs stand apart in the source and are kept apart here. Square brackets hold non-standard residues; d marks the D form. Peptide text beside a SMILES is read from it. dPhe(4-Cl) = N[C@H](Cc1ccc(Cl)cc1)C(=O)O; d2Nal = N[C@H](Cc1ccc2ccccc2c1)C(=O)O; Hyp = O=C(O)[C@@H]1C[C@@H](O)CN1; 2Thi = N[C@@H](Cc1cccs1)C(=O)O; d2Thi = N[C@H](Cc1cccs1)C(=O)O

Key:
[1] = system: isolated rat uterus; assay type: cell-based; conditions: for pA2 /RUT: activity class: not quantitated
Procedure, shortened: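 Antagonism of bradykinin-induced contraction in isolated rat uterus (natural or induced estrus) and guinea pig ileum. Antagonist preincubated 30 s before a double-ED50 bradykinin dose, with the dose raised until the response fell to that of a single ED50. pA2 is the negative log molar antagonist concentration achieving this (Schild method).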

[2] = system: isolated guinea pig ileum; assay type: cell-based; parameters: pA2 /GPI: activity class: scale not given here; conditions: isolated guinea pig ileum; for pA2 /GPI: activity class: not quantitated; for pA2 /GPI (antagonist potency): number of tissues in parentheses
Protocol: The bradykinin antagonists were assayed on isolated rat uterus in natural or induced estrus and on guinea pig ileum, according to the commonly accepted assay methods for bradykinin and related kinins as described by Trautschold (Handbook of Expt. Pharmacol. Vol 25, Springer Verlag, pp. 53-55, 1970) for inhibition of the myotropic activity of bradykinin. The inhibition potencies, as determined according to the commonly accepted manner described by Schild for antagonists of biologically active compounds (Br. J. Pharmacol. 2:189, 1947), and expressed as pA2 values are determined on isolated rat uterus (RUT) and isolated guinea pig ileum (GPI). In the assays, a dose-response curve is determined for the reference substance bradykinin. The dose of bradykinin which produced a half maximal contraction of tissue is the ED50 dose. An amount of bradykinin equivalent to twice the ED50 dose is administered to the tissue 30 seconds after the start of incubation of the tissue with a dose of antagonist. Doses of antagonist are increased in this protocol until pre-incubation with a dose of antagonist reduces the contraction in response to the double ED50 dose of bradykinin to response of a single ED50 dose of bradykinin. The pA2 value represents the negative logarithm of the molar concentration of antagonist necessary to reduce the response of a double ED50 dose of bradykinin to that of an ED50 dose. One unit of pA2 value represents an order of magnitude change in potency. For comparison, the negative log of the dose of BK, the dose which causes half maximal contraction of the tissues, is commonly known as the pD2 value. The pD2 value for bradykinin is 7.9 on the rat uterus and 7.4 on the guinea pig ileum.

[3] = system: rat blood pressure; test: effects on blood pressure in the anesthetized rat (RBP), intraaortic and intravenous bolus; assay type: in vivo; parameters: RBP-IA: activity class / RBP-IV: activity class: scale not given here; conditions: for RBP-IA: activity class / RBP-IV: activity class: rat blood pressure; for RBP-IA: activity class: intraaortic bolus; for RBP-IV: activity class: intravenous bolus
Protocol: The in vivo effects of bradykinin antagonists on blood pressure in the anesthetized rat are determined according to the assay described by Roblero, Ryan and Stewart (Res. Commun. Pathol. Pharmacol. 6:207, 1973). The antagonists also produce inhibition of the bradykinin response when injected as a bolus admixture of bradykinin plus antagonist by either the ia or iv route of administration.

[4] = isolated rat uterus, number of tissues in parentheses

SMILES	pA2 /GPI: activity class [2]	pA2 /RUT: activity class ([1]; isolated rat uterus)	other results
N=C(N)NCCC[C@H](N)C(=O)N1CCC[C@H]1C(=O)N1CCC[C@H]1C(=O)NCC(=O)N[C@@H](Cc1cccs1)C(=O)N[C@@H](CO)C(=O)N[C@H](Cc1ccccc1)C(=O)N[C@@H](Cc1cccs1)C(=O)N[C@H](CCCNC(=N)N)C(=O)O [Example 41, Arg-Pro-Pro-Gly-Thi-Ser-DPhe-Thi-DArg] (H-RPPG[2Thi]S[dF][2Thi][dR]-OH)	0	–	pA2 /RUT: agonist potency as percent of BK potency [1]: 0.01%; % DESTR (metabolic breakdown of BK-like agonists in RBP assay) ([3]; rat, in vivo): 77%; RBP-IA: agonist potency as percent of BK potency ([3]; rat, in vivo): 0.1%; RBP-IV: agonist potency as percent of BK potency ([3]; rat, in vivo, iv): 0.6%
N=C(N)NCCC[C@@H](N)C(=O)N[C@H](Cc1cccs1)C(=O)N1CCC[C@H]1C(=O)N1CCC[C@H]1C(=O)NCC(=O)N[C@@H](Cc1ccccc1)C(=O)N[C@@H](CO)C(=O)N[C@H](Cc1cccs1)C(=O)N[C@@H](Cc1ccccc1)C(=O)N[C@@H](CCCNC(=N)N)C(=O)O [Example 35, DArg-DThi-Pro-Pro-Gly-Phe-Ser-DThi-Phe-Arg] (H-[dR][d2Thi]PPGFS[d2Thi]FR-OH)	0	0	RBP-IA: activity class [3]: 0; RBP-IV: activity class [3]: 0
CC(=O)N[C@@H](CCCNC(=N)N)C(=O)N1CCC[C@H]1C(=O)N1CCC[C@H]1C(=O)NCC(=O)N[C@@H](Cc1cccs1)C(=O)N[C@@H](CO)C(=O)N[C@H](Cc1ccccc1)C(=O)N[C@@H](Cc1cccs1)C(=O)N[C@H](CCCNC(=N)N)C(=O)O [Example 42, Ac-Arg-Pro-Pro-Gly-Thi-Ser-DPhe^7 -Thi-DArg] (Ac-RPPG[2Thi]S[dF][2Thi][dR]-OH)	0	0	RBP-IA: activity class [3]: 0; RBP-IV: activity class [3]: 0
CC[C@H](C)[C@H](NC(=O)[C@H](CCCNC(=N)N)NC(=O)[C@H](Cc1cccs1)NC(=O)[C@@H](Cc1ccccc1)NC(=O)[C@H](CO)NC(=O)[C@H](Cc1cccs1)NC(=O)CNC(=O)[C@@H]1C[C@@H](O)CN1C(=O)[C@@H]1CCCN1C(=O)[C@H](CCCNC(=N)N)NC(=O)[C@H](N)CCCNC(=N)N)C(=O)N[C@@H](Cc1ccc(O)cc1)C(=O)O [Example 68, DArg-Arg-Pro-Hyp-Gly-Thi-Ser-DPhe-Thi-Arg-Ile-Tyr] (H-[dR]RP[Hyp]G[2Thi]S[dF][2Thi]RIY-OH)	–	–	pA2 /RUT: agonist potency as percent of BK potency [1]: 0.02%; pA2 /GPI (antagonist potency) [2]: 6.7; RBP-IA: agonist potency as percent of BK potency ([3]; rat, in vivo): 7%
N=C(N)NCCC[C@H](NC(=O)[C@H](Cc1cccs1)NC(=O)[C@@H](Cc1ccccc1)NC(=O)[C@H](CO)NC(=O)[C@H](Cc1cccs1)NC(=O)CNC(=O)[C@@H]1C[C@@H](O)CN1C(=O)[C@@H]1C[C@@H](O)CN1C(=O)[C@H](N)Cc1ccc2ccccc2c1)C(=O)O [Example 26, DNal-Hyp-Hyp-Gly-Thi-Ser-DPhe-Thi-Arg] (H-[d2Nal][Hyp][Hyp]G[2Thi]S[dF][2Thi]R-OH)	0	0	–
N=C(N)NCCC[C@@H](N)C(=O)N[C@H](Cc1ccc2ccccc2c1)C(=O)N1CCC[C@H]1C(=O)N1C[C@H](O)C[C@H]1C(=O)NCC(=O)N[C@@H](Cc1ccccc1)C(=O)N[C@@H](CO)C(=O)N[C@H](Cc1ccccc1)C(=O)N[C@@H](Cc1ccccc1)C(=O)N[C@@H](CCCNC(=N)N)C(=O)O [Example 32, DArg-DNal-Pro-Hyp-Gly-Phe-Ser-DPhe-Phe-Arg] (H-[dR][d2Nal]P[Hyp]GFS[dF]FR-OH)	0	–	pA2 /RUT (antagonist potency) [1]: 5.9
CC[C@H](C)[C@H](NC(=O)[C@H](CCCNC(=N)N)NC(=O)[C@H](Cc1cccs1)NC(=O)[C@@H](Cc1ccccc1)NC(=O)[C@H](CO)NC(=O)[C@H](Cc1cccs1)NC(=O)CNC(=O)[C@@H]1CCCN1C(=O)[C@@H]1CCCN1C(=O)[C@H](CCCNC(=N)N)NC(=O)[C@H](N)CCCNC(=N)N)C(=O)N[C@@H](Cc1ccc(O)cc1)C(=O)O [Example 66, DArg-Arg-Pro-Pro-Gly-Thi-Ser-DPhe-Thi-Arg-Ile-Tyr] (H-[dR]RPPG[2Thi]S[dF][2Thi]RIY-OH)	–	–	pA2 /RUT: agonist potency as percent of BK potency [1]: 0.3%; pA2 /GPI (antagonist potency) [2]: 5.8
N=C(N)NCCC[C@@H](N)C(=O)N[C@H](Cc1ccc2ccccc2c1)C(=O)N1C[C@H](O)C[C@H]1C(=O)N1C[C@H](O)C[C@H]1C(=O)NCC(=O)N[C@@H](Cc1cccs1)C(=O)N[C@@H](CO)C(=O)N[C@H](Cc1ccccc1)C(=O)N[C@@H](Cc1cccs1)C(=O)N[C@@H](CCCNC(=N)N)C(=O)O [Example 27, DArg-DNal-Hyp-Hyp-Gly-Thi-Ser-DPhe-Thi-Arg] (H-[dR][d2Nal][Hyp][Hyp]G[2Thi]S[dF][2Thi]R-OH)	0	–	pA2 /RUT (antagonist potency) [1]: 5.3
N=C(N)NCCC[C@@H](N)C(=O)N[C@H](Cc1ccc2ccccc2c1)C(=O)N1CCC[C@H]1C(=O)N1CCC[C@H]1C(=O)NCC(=O)N[C@@H](Cc1ccccc1)C(=O)N[C@@H](CO)C(=O)N[C@H](Cc1ccccc1)C(=O)N[C@@H](Cc1ccccc1)C(=O)N[C@@H](CCCNC(=N)N)C(=O)O [Example 31, DArg-DNal-Pro-Pro-Gly-Phe-Ser-DPhe-Phe-Arg] (H-[dR][d2Nal]PPGFS[dF]FR-OH)	0	–	pA2 /RUT (antagonist potency) [1]: 5.6
N=C(N)NCCC[C@@H](N)C(=O)N[C@@H](CCCNC(=N)N)C(=O)N1CCC[C@H]1C(=O)N1CCC[C@H]1C(=O)NCC(=O)N[C@@H](Cc1cccs1)C(=O)N[C@@H](CO)C(=O)N[C@H](Cc1ccccc1)C(=O)N[C@@H](Cc1cccs1)C(=O)N[C@H](CCCNC(=N)N)C(=O)O [Example 43, DArg-Arg-Pro-Pro-Gly-Thi-Ser-DPhe-Thi-DArg] (H-[dR]RPPG[2Thi]S[dF][2Thi][dR]-OH)	0	0	–
CC(=O)N[C@@H](CCCNC(=N)N)C(=O)N1CCC[C@H]1C(=O)N1CCC[C@H]1C(=O)NCC(=O)N[C@@H](Cc1cccs1)C(=O)N[C@@H](CO)C(=O)N[C@H](Cc1ccccc1)C(=O)N[C@@H](Cc1cccs1)C(=O)N[C@@H](CCCNC(=N)N)C(N)=O [Example 52, Ac-Arg-Pro-Pro-Gly-Thi-Ser-DPhe-Thi-Arg-NH2] (Ac-RPPG[2Thi]S[dF][2Thi]R-NH2)	0	0	–
N=C(N)NCCC[C@@H](N)C(=O)N[C@H](Cc1ccc(Cl)cc1)C(=O)N1CCC[C@H]1C(=O)N1CCC[C@H]1C(=O)NCC(=O)N[C@@H](Cc1ccccc1)C(=O)N[C@@H](CO)C(=O)N[C@H](Cc1ccccc1)C(=O)N[C@@H](Cc1ccccc1)C(=O)N[C@@H](CCCNC(=N)N)C(=O)O [Example 4, DArg-CDF-Pro-Pro-Gly-Phe-Ser-DPhe-Phe-Arg] (H-[dR][dPhe(4-Cl)]PPGFS[dF]FR-OH)	0	–	pA2 /RUT (antagonist potency) [1, 4]: 5.4
N=C(N)NCCC[C@H](NC(=O)[C@H](Cc1cccs1)NC(=O)[C@@H](Cc1ccccc1)NC(=O)[C@H](CO)NC(=O)[C@H](Cc1cccs1)NC(=O)CNC(=O)[C@@H]1C[C@@H](O)CN1C(=O)[C@@H]1C[C@@H](O)CN1C(=O)[C@@H](Cc1ccc2ccccc2c1)NC(=O)[C@H](CCCCN)NC(=O)[C@@H](N)CCCCN)C(=O)O [Example 28, Lys-Lys-DNal-Hyp-Hyp-Gly-Thi-Ser-DPhe-Thi-Arg] (H-KK[d2Nal][Hyp][Hyp]G[2Thi]S[dF][2Thi]R-OH)	0	0	–
N=C(N)NCCC[C@@H](N)C(=O)N[C@H](Cc1ccc(Cl)cc1)C(=O)N1CCC[C@H]1C(=O)N1C[C@H](O)C[C@H]1C(=O)NCC(=O)N[C@@H](Cc1ccccc1)C(=O)N[C@@H](CO)C(=O)N[C@H](Cc1ccccc1)C(=O)N[C@@H](Cc1ccccc1)C(=O)N[C@@H](CCCNC(=N)N)C(=O)O [Example 5, DArg-CDF-Pro-Hyp-Gly-Phe-Ser-DPhe-Phe-Arg] (H-[dR][dPhe(4-Cl)]P[Hyp]GFS[dF]FR-OH)	0	–	pA2 /RUT (antagonist potency) [1, 4]: 5.8
N=C(N)NCCC[C@H](NC(=O)[C@H](Cc1cccs1)NC(=O)[C@@H](Cc1ccccc1)NC(=O)[C@H](CO)NC(=O)[C@H](Cc1cccs1)NC(=O)CNC(=O)[C@@H]1CCCN1C(=O)[C@@H]1CCCN1C(=O)[C@H](N)Cc1ccccc1)C(=O)O [Example 19, DPhe-Pro-Pro-Gly-Thi-Ser-DPhe-Thi-Arg] (H-[dF]PPG[2Thi]S[dF][2Thi]R-OH)	0	0	–
